The record followed here is patent US20190083420A1, “METHODS OF USING (2R, 6R)-HYDROXYN[…] (2S, 6S)-HYDROXYN[…] THE TREATMENT OF DEPRESSION, ANXIETY, ANHEDONIA, FATIGUE, SUICIDAL IDEATION, AND POST TRAUMATIC STRESS DISORDERS” (The Uinited States of America, as represented by the …, priority 2016, published 2019).

Entries after “also recorded” stand apart in the source; their conditions may differ.

What all share (type): in vivo
The subject of series [1] is mice. In words: Open field test (locomotor activity). To be noted: 1 hour after i.p. drug. The method, then: Mice were placed into individual open-field arenas (50 cm length×50 cm width×38 cm height; San Diego Instruments, San Diego, Calif., USA) for a 60-min habituation period. Mice were then injected with the respective drug and assessed for locomotor activity for another 60 min. Distance travelled was analyzed using TopScan v2.0 (CleverSys, Inc, Reston, Va., USA).

Series [2] deals with mice. In words: Quantitative EEG, cortical oscillation power. To be noted: for cortical gamma power: acute; for cortical gamma power / cortical alpha, beta, delta and theta oscillations: after i.p. 10 mg/kg. The method, then: EEG experiments were performed according to Raver et al., (Neuropsychopharmacology, 38, 2338-2347 (2013)) with minor modifications. Mice were anesthetized with isoflurane and kept under anesthesia throughout the surgery. An F20-EET radio-telemetric transmitter (Data Sciences International, Minneapolis, Minn.) was implanted subcutaneously and its leads implanted over the dura above the frontal cortex (1.7 mm anterior to bregma) and the cerebellum (6.4 mm posterior to bregma). Animals recovered from surgery for 7 days before recordings.
Mice were singly housed and acclimated to the behavioral room for 24 hours prior to EEG recordings. EEGs were recorded using the Dataquest A.R.T. acquisition system (Data Sciences International) with frontal EEG recordings referenced to the cerebellum. Baseline EEG (10 min) recordings were followed by an i.p. injection of saline, ketamine (10 mg/kg) or (2R,6R)-HNK (10 mg/kg) and 40 min of post-injection recordings.
ECoGs were analyzed using custom-written MATLAB scripts (Version 2012a, Mathworks, Mass.) and the mtspecgramc routine in the Chronux Toolbox (http://chronux.org; Mitra and Bokil, 2008). Oscillation power in each bandwidth (δ=1-3 Hz; θ=4-7 Hz; α=8-12 Hz; β=13-29 Hz; γ=30-80 Hz) was computed in 10 min bins from spectrograms for each animal.

In series [3] the test system is mice. In words: Pre-pulse inhibition of acoustic startle. The text has this:
Mice were individually tested in acoustic startle boxes (SR-LAB, San Diego Instruments). Following drug administration, mice were placed in the startle chamber for a 30-min habituation period. The experiment started with a further 5-min adaptation period during which the mice were exposed to a constant background noise (67 dB), followed by five initial startle stimuli (120 dB, 40 msec duration each). Subsequently, animals were exposed to five different trial types: pulse alone trials (120 dB, 40 msec duration), three pre-pulse trials of 76, 81 and 86 dB of white noise bursts (20 msec duration) preceding a 120 dB pulse by 100 msec, and background (67 dB) no-stimuli trials. Each of these trials was randomly presented five times. Ketamine's dose selection (30 mg/kg) was based on a dose-response study we performed in a previous study. The percentage pre-pulse inhibition (% PPI) was calculated using the following formula: [(magnitude on pulse alone trial—magnitude on pre-pulse+pulse trial)/magnitude on pulse alone trial]×100.

The test system of series [4] is mice. In words: Drug discrimination in ketamine-trained mice. To be noted: for response rate of overall lever pressing per sec: drug discrimination paradigm. Here is the method: Mice were food restricted until they reached 85% of their initial body weight and were maintained at 85% throughout the duration of the experiment Animals were trained to lever press for food (20 mg sucrose pellets; TestDiet, St. Luis, Mo., USA) in standard two lever-operant conditioning chambers (Coulbourn Instruments, Whitehall, Pa., USA), under a fixed-ratio 5 of reinforcement (FR5) in daily 30-min sessions. When stable responding was succeeded over 3 consecutive sessions (average of 40 training sessions), mice were trained to discriminate ketamine (10 mg/kg) from saline (7.5 ml/kg) under a double alternation schedule (e.g., ketamine, ketamine, saline, saline). The subjects received either ketamine (10 mg/kg; i.p.) or saline (7.5 ml/kg) 15 minutes prior to the start of the 30-minute session. […] Drug discrimination test sessions were conducted when mice reached the following criteria: (1) first FR5 completed on the correct lever, and (2)≥85% correct lever responding over the entire session. During the test sessions mice were administered with saline (7.5 ml/kg), ketamine (10 mg/kg), phencyclidine (PCP; 3 mg/kg) or (2R,6R)-HNK (10 and 50 mg/kg). […] Recording of responses and pellet delivery were controlled and calculated by an automated computer system (Graphic State v3.1; Coulbourn Instruments, Whitehall, Pa., USA).

For another series, the system named is male CD-1 mice. In words: Learned helplessness (LH). Conditions: single injection. From the text:
Male CD-1 mice (8-10 weeks old, Charles River Laboratories, Mass., USA) were housed in groups of four-five per cage with a constant 12-hour light/dark cycle (lights on/off at 07:00/19:00). Food and water were available ad libitum. Mice acclimatized to the new environment for seven days prior to the start of the experiments. For the whole-cell NMDA current electrophysiological recordings, male Sprague-Dawley rats (housed three per cage; Charles River, Wilmington, Mass.) were used. EPSC recording were done from rats at postnatal day 24-25. All experimental procedures were approved by the University of Maryland, Baltimore Animal Care and Use Committee and were conducted in full accordance with the National Institutes of Health Guide for the Care and Use of Laboratory Animals.
The LH paradigm consisted of three different phases, i.e., inescapable shock training, LH screening, and the LH test. For the inescapable shock portion of the test (Day 1), the animals were placed in one side of two-chambered shuttle boxes (34 cm height×37 cm width×18 cm depth; Coulbourn Instruments, PA, USA), with the door between the chambers closed. Following a five-min adaptation period, 120 inescapable foot-shocks (0.45 mA, 15 sec duration, randomized average inter-shock interval of 45 sec) were delivered through the grid floor. During the screening session (Day 2), the mice were placed in one of the two chambers of the apparatus for 5 min. A shock (0.45 mA) was then delivered, and the door between the two chambers was raised simultaneously. Crossing over into the second chamber terminated the shock. […] A total of 30 screening trials of escapable shocks were presented to each mouse with an average of 30 sec delay between each trial. Mice that developed helplessness behavior (>5 escape failures during the last 10 screening shocks) were administered with the respective drug 24 hours following screening (Day 3). During the LH test phase (Day 4), the animals were placed in the shuttle boxes and, after a 5-min adaptation period, a 0.45 mA shock was delivered concomitantly with door opening for the first five trials, followed by a 2-sec delay for the next 40 trials. Crossing over to the second chamber terminated the shock. […] A total of 45 trials of escapable shock were presented to each mouse with 30 sec inter-trial intervals. The number of escape failures was recorded for each mouse.

With `CNC1(c2ccccc2Cl)CCCCC1=O` (racemic) [ketamine, (R,S)-ketamine, reference compound], the “locomotor activity in the open-field test” value was “not associated with sex differences in ketamine-induced hyperlocomotion” in the series on mice [1]; “induced hyper-locomotor responses equally in both male and female mice” in the series on mice [1] (listed as (R,S)-KET); “equally potent in inducing a hyper-locomotor response” in the series on mice [1] (listed as (R,S)-ketamine). The cortical gamma power result with mice [2] (10 mg/kg) is “acutely increases cortical gamma power”. Moreover, the “cortical alpha, beta, delta and theta oscillations” value with mice [2] was “Neither (R,S)-KET, nor (2R,6R)-HNK altered”. Further, in the series on mice [2] (mouse, in vivo), the “locomotor home-cage activity during EEG recording” value was “increased locomotor home-cage activity”. For the same compound, in the series on mice [3] (mouse, in vivo), the “startle amplitude in the pre-pulse inhibition task” value is “not affected”. For the same compound, the “response rate of overall lever pressing per sec” value in the series with mice [4] is “not changed”.
As for `N[C@@]1(c2ccccc2Cl)CCC[C@@H](O)C1=O` [(2R,6R)-HNK, (2R,6R)-2-amino-2-(2-chlorophenyl)-6-hydroxycyclohexanone], in the series with mice [1], the “locomotor activity in the open-field test” value is given as “did not induce any significant change in locomotion; also recorded: did not induce any stimulant-like hyperlocomotion”. In addition, in the series with mice [2] (10 mg/kg), the cortical gamma power result is “acutely increases cortical gamma power”; the “cortical alpha, beta, delta and theta oscillations” value is recorded as “without altering alpha, beta, delta or theta oscillations; also recorded: Neither (R,S)-KET, nor (2R,6R)-HNK altered”. Further, the “doses with antidepressant-like effects in learned helplessness” value in the series with male CD-1 mice lay within 5 to 75 mg/kg. In addition, the “antidepressant-like effect in learned helplessness (escape failures)” value in the series with male CD-1 mice (test 24 hours after administration) was “greater potency and longer-lasting antidepressant-like effects; also recorded: dose-dependent antidepressant-like responses; also recorded: more potent antidepressant effects; also recorded: dose-dependent antidepressant action”. In addition, the “pre-pulse inhibition (sensorimotor gating)” value with mice [3] ((2R,6R)-HNK up to 375 mg/kg) is recorded as “did not induce 4e, pre-pulse inhibition deficits; also recorded: did not affect sensorimotor gating; also recorded: did not affect pre-pulse inhibition”. The “response rate of overall lever pressing per sec” value with mice [4] is “not changed”. In the series on mice [4] (mice trained to discriminate ketamine (10 mg/kg) from saline), the ketamine-associated discriminative stimulus result is “did not induce; also recorded: did not produce ketamine-related discrimination responses; also recorded: did not produce discriminative stimulus behaviors”.
